For the test, the target named is T1, CB-1 receptor (Rattus norvegicus, UniProt P20272).
T1 construct: tissue Pel Freeze Biologicals, Rogers, Ark; host or cells: rat brain membrane homogenate
Put plainly: CB-1 receptor binding assay ([3H]SR141716A displacement). The note with it: inhibition of [3H] SR141716A binding, rat brain tissue, 20° C. for 60 minutes. Here is the method: The following assays were designed to detect compounds that inhibit the binding of [3H] SR141716A (selective CB-1 radiolabeled ligand) and [3H] 5-(1,1-dimethyl-heptyl)-2-[5-hydroxy-2-(3-hydroxy-propyl)-cyclohexyl]-phenol (CB-1/CB-2 radiolabeled ligand) to their respective receptors.
PelFreeze brains (available from Pel Freeze Biologicals, Rogers, Ark.) were cut up and placed in tissue preparation buffer (5 mM Tris HCl, pH=7.4 and 2 mM EDTA), polytroned at high speed and kept on ice for 15 minutes. The homogenate was then spun at 1,000×g for 5 minutes at 4° C. The supernatant was recovered and centrifuged at 100,000×G for 1 hour at 4° C. The pellet was then re-suspended in 25 ml of TME ([…] Tris, pH=7.4, 5 mM MgCl2, and 1 mM EDTA) per brain used. A protein assay was performed and 200 μl of tissue totaling 20 μg was added to the assay.
The test compounds were diluted in drug buffer (0.5% BSA, 10% DMSO and TME) and then 25 μl were added to a deep well polypropylene plate. [3H] SR141716A was diluted in a ligand buffer (0.5% BSA plus TME) and 25 μl were added to the plate. A BCA protein assay was used to determine the appropriate tissue concentration and then 200 μl of rat brain tissue at the appropriate concentration was added to the plate. […] In the morning the filters were counted on a Wallac Betaplate™ counter (available from PerkinElmer Life Sciences™, Boston, Mass.).

T1 sequence (P20272 whole entry): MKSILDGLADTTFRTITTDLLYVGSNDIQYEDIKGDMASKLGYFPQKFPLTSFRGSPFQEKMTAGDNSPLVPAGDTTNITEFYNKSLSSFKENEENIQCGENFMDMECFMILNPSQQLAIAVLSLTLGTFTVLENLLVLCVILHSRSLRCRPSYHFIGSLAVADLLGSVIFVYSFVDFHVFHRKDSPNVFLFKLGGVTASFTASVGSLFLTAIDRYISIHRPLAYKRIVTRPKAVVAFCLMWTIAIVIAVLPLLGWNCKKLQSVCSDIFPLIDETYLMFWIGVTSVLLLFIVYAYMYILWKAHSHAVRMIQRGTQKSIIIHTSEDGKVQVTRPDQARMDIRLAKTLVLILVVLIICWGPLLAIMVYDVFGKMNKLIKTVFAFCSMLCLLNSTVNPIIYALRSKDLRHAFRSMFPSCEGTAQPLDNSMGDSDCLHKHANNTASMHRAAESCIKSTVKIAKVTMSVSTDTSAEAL

`Cc1c(-c2ncn(C)c2-c2ccccc2)nn(-c2ccccc2Cl)c1-c1ccc(Cl)cc1` [Example 1B-13, 5-(4-Chloro-phenyl)-1-(2-chloro-phenyl)-4-methyl-3-(1-methyl-5-phenyl-1H-imidazol-4-yl)-1H-pyrazole]: the binding affinity stood at 371 nM.

Values taken from patent publication US20040077650A1, “Cannabinoid receptor ligands and uses thereof” (Pfizer Inc., priority 2002, published 2004).
